Measured values as given in patent US9416128B2, “Fused heterocyclic compounds as ion channel modulators” (Gilead Sciences, Inc., priority 2013, dated 2016).

Tests used:
[1] = tested on: ischemia-induced ST segment elevation; assay: Ischemia-induced ST segment elevation in anesthetized rabbits; type: in vivo, rabbit; settings: iv infusion, 0.9 uM concentration
Method: This study was undertaken to determine the anti-ischemic effects of compounds of the present disclosure in an in vivo rabbit model.
Female New Zealand rabbits (3.0-4.0 kg) were purchased from Western Oregon Rabbitry. Animals were housed on a 12-h light and dark cycle and received standard laboratory chow and water. All experiments were performed in accordance with the Guide for the Care and Use of Laboratory Animals published by The National Research Council and with the experimental protocol approved by the Institutional Animal Care Committee of Gilead Sciences, Inc.
Rabbits were anesthetized with ketamine (35 mg/kg) and xylazine (5 mg/kg) intramuscular injection (im). A tracheotomy was performed and the trachea was intubated with an endotracheal tube. […]
Reference electrodes were placed in the open incision of the neck. The body temperature of the animal was monitored via a rectal thermometer and maintained at 37-40° C. by adjusting the surface temperature of the surgical table. […] The ischemic area was visualized by perfusing the heart with 1% Evans blue in saline and calculated as a percentage of total ventricular weight. […]

[2] = tested on: hNaV1.3 (SCN3A); assay: Voltage-dependent inhibition of the NaV1.3 sodium channel; type: cell-based, human; settings: voltage-dependent block at 1 uM
Method: HEK-293 cells stably expressing wild-type (WT) hNaV1.3 (SCN3A NCBI # NP_001075, SCN1B NCBI # NM_001037.4, SCN2B NCBI # NM_004588.2) were used to record INa. Cells are maintained with standard tissue culture procedures and stable channel expression is maintained with 800 ug/mL G418 and 3 ug/mL Puromycin in the culture medium. Unless otherwise noted, all reagents are purchased from Sigma-Aldrich (St Louis, Mo., U.S.A.).
Assays measuring Voltage-Dependent Block (VDB) of NaV1.3 are performed on an automated electrophysiology platform, QPatch 16X or QPatch HT (Sophion Bioscience, Copenhagen, Denmark), using the whole cell patch clamp technique to measure currents through the cell membrane. Series resistance compensation is set to 100% and series resistance and whole-cell compensation are performed automatically. Currents stored in the Sophion Bioscience Oracle database (Sophion Bioscience, Copenhagen, Denmark). Analysis is performed using QPatch Assay software and data are compiled in Excel 2010 (Microsoft, Seattle, Wash., U.S.A.).
The internal (pipette) solution consists of (in mM) 105 CsF, 10 NaF, 20 CsCl, 2 EGTA, 10 HEPES, 10 Dextrose with a pH of 7.35 and osmolarity of 300 mOsmol/kg. The external (bath) solution contains in (mM): 80 NaCl, 60 Choline-Cl, 4 KCl, 1.8 CaCl2, 1 MgCl2, 10 dextrose, 10 HEPES, with a pH of 7.35 and osmolarity of 310 mOsmol/kg. Experiments are carried out at 23-25° C.
Compound stocks are routinely made by the Gilead Sample Bank in vials to 10 mM in dimethyl sulfoxide (DMSO). In some cases, when compounds are not soluble in DMSO, they are made in 100% ethanol. […] Cells are allowed to stabilize for 10 min after establishment of the whole-cell configuration before current is measured. […]
Voltage-dependent block of NaV1.3 peak current was measured during a voltage step to 0 mV (20 ms) following a voltage step pre-conditioning steps (−55 mV for 10 sec followed by −120 mV for 10 ms). […] The voltage protocol for VDB was performed every 45 seconds in the absence and presence of compound and percentage inhibition was calculated with respect to the compound free condition.

COc1cc(OC(F)(F)F)ccc1-c1ccc2c(c1)CN(Cc1ncccn1)C(=O)O2 [Example 1, 6-(2-methoxy-4-(trifluoromethoxy)phenyl)-3-(pyrimidin-2-ylmethyl)-3,4-dihydro-2H-benzo[e][1,3]oxazin-2-one]
inhibition in the rabbit ST segment elevation assay [1]: 58%

Cc1cc(-c2ccc3c(c2)CN(Cc2ncccn2)C(=O)O3)ccc1OC(F)(F)F [Example 5, 6-(3-methyl-4-(trifluoromethoxy)phenyl)-3-(pyrimidin-2-ylmethyl)-3,4-dihydro-2H-benzo[e][1,3]oxazin-2-one]
NaV1.3 VDB % inhibition at 1 uM [2]: 31%

O=C1Oc2ccc(-c3ccc(OC(F)(F)F)cc3F)cc2CN1Cc1ncccn1 [Example 7, 6-(2-fluoro-4-(trifluoromethoxy)phenyl)-3-(pyrimidin-2-ylmethyl)-3,4-dihydro-2H-benzo[e][1,3]oxazin-2-one]
NaV1.3 VDB % inhibition at 1 uM [2]: 32%

Cc1cc(OC(F)(F)F)ccc1-c1ccc2c(c1)CN(Cc1ncccn1)C(=O)O2 [Example 8, 6-(2-methyl-4-(trifluoromethoxy)phenyl)-3-(pyrimidin-2-ylmethyl)-3,4-dihydro-2H-benzo[e][1,3]oxazin-2-one]
NaV1.3 VDB % inhibition at 1 uM [2]: 13.8%
